From PubChem BioAssay AID489010 (Southern Research Specialized Biocontainment Screening …, 2010)
Several values for one entry are separate records, joined by “and”; a condition that tells them apart may be missing. Identical values can stand only once. Activity calls are given as the source filed them. The rule behind the calls is not given here.

Test system: M. tuberculosis H37Rv growth inhibition
Assay: M. tuberculosis H37Rv growth inhibition, dose response, strain H37Rv (AID 489010)
Conditions: not given

Row | Structure (SMILES) | IC90 [µM]
1 | CC(=O)N(Cc1ccc(F)cc1)C1=C(NCCc2ccccc2)C(=O)c2ccccc2C1=O | 1.31
2 | Cc1c(/C=N/Nc2nc3ccccc3[nH]2)c2ccccc2n1C | 16.2
3 | C(=N\Nc1nncc2ccccc12)/c1ccccn1 | 19.8

Same assay, conditions: measured here: H37Rv growth IC50

Row | Structure (SMILES) | IC50 [µM]
4 | Cc1ccc(Sc2ccc(NC(=O)CCl)cc2)c(C)c1 | 17.7
5 | COc1cc(NCCCCCCCN)c2ncccc2c1 | 36.3
6 | Cc1[nH]n(-c2ccccc2)c(=O)c1C(C[N+](=O)[O-])c1ccc(F)cc1 (configuration not stated) | 19.6
7 | COc1cccc(N(C(=O)CCl)C(C(=O)NCCc2ccccc2)c2cccs2)c1 (configuration not stated) | 19.1
8 | CN(C1=C(NC(=O)c2ccccc2)C(=O)c2ccccc2C1=O)C1CCS(=O)(=O)C1 (configuration not stated) | 88.6
9 | Cn1c(O)c(C2=NN(C(=O)CCl)C(c3ccccc3)C2)c(=O)n(C)c1=O (configuration not stated) | 82.7
10 | O=C(OCn1ncc(Cl)c(Cl)c1=O)c1ccccc1Cl | 22.1
11 | CC(=O)n1cc(N(C(=O)CCl)c2ccc(C)cc2)c2ccccc21 | 1.95
12 | COC(=O)c1sc(-c2ccc(C(C)(C)C)cc2)cc1NC(=O)/C=C/C(=O)O | 19.1
13 | Cn1nc(-c2ccc(Cl)cc2)nc2c(=O)n(C)c(=O)nc1-2 | 6.35
14 | CC(C)c1nnc(NC(=O)c2nc(S(=O)(=O)Cc3ccc(F)cc3)ncc2Cl)s1 | 53.8
15 | O=C(NC(NC(=S)Nc1ccc(Cl)cc1Cl)C(Cl)(Cl)Cl)c1cccc([N+](=O)[O-])c1 (configuration not stated) | 9.33
16 | Cc1ccc(Sc2ccc(NC(=O)CCl)cc2)cc1C | 14.4
17 | CC(=O)n1cc(N(C(=O)CCl)c2ccc([N+](=O)[O-])cc2)c2ccccc21 | 3.24
18 | CSc1nnc(NC(=O)c2nc(S(=O)(=O)Cc3cccc(C)c3)ncc2Cl)s1 | 23.8
19 | Cc1cc(Br)c2c(c1)/C(=C/C(=O)c1cccs1)C(=O)N2 | 11.7
20 | Cc1nn(-c2ccccc2)c(Cl)c1CN(C(=O)CCl)c1cccc2ccccc12 | 21.7
21 | Cc1cc(C)c(S(=O)(=O)/N=C2\C=C(Nc3ccc(C(=O)O)cc3)C(=O)c3ccccc32)c(C)c1 | > 100
22 | O=C(Cc1ccccc1)c1c[nH]c(C(=O)C(Cl)(Cl)Cl)c1 | 93.8
23 | Cc1nn(-c2ccccc2)c(Cl)c1CN(C(=O)CCl)c1ccc(Cl)cc1 | 1.53
24 | Cc1cccc(Cn2nnc3c2C(=O)c2ccccc2C3=O)c1 | 13.7
25 | O=C(NC1=C(NC2CCS(=O)(=O)C2)C(=O)c2ccccc2C1=O)c1ccccc1 (configuration not stated) | 50.7
26 | Cc1ccc(N(C(=O)CCl)C(C(=O)NC2CCCCC2)c2cccnc2)cc1C (configuration not stated) | 20.5
27 | O=C(CCl)N(c1ccc(Cl)cc1)c1c[nH]c2ccccc12 | 1.91

Row | Structure (SMILES) | IC50 [µM]
28 | CCN(CC)CCNC(=O)c1ccc2c(c1NCCO)C(=O)c1ccccc1C2=O | > 100
29 | COc1cc2c(cc1OC)C(c1cc(Br)ccc1F)N(C(=O)CCl)CC2 (configuration not stated) | 5.91
30 | Cc1oc2c(c1C(=O)N1CCOCC1)C(=O)c1ccccc1C2=O | 18
31 | CSc1nnc(NC(=O)c2nc(S(=O)(=O)Cc3ccccc3F)ncc2Cl)s1 | 41.3
32 | CC(NC(=O)COC(=O)c1cc(NS(=O)(=O)c2ccc(Cl)c([N+](=O)[O-])c2)ccc1O)C1CC2CCC1C2 (configuration not stated) | 52.1
33 | C=CCOc1ccccc1CN(C(=O)CCl)c1ccc2c(c1)OCO2 | 1.64
34 | Cc1ccc(C(=O)Oc2ccc([N+](=O)[O-])cc2)cc1S(=O)(=O)N1CCCCCC1 | 46.6
35 | COc1ccc2nc(C)cc(Sc3nc4ccccc4s3)c2c1 | 42.3
36 | O=C(CCl)Nc1cn(-c2ccccc2)nc1-c1ccc(F)cc1 | < 0.2
37 | CC(CCc1ccccc1)NC(=O)COC(=O)c1cc(NS(=O)(=O)c2ccc(Cl)c([N+](=O)[O-])c2)ccc1O (configuration not stated) | > 100
38 | COC(=O)c1c(C)oc2ccc(N(C(=O)c3ccncc3)S(=O)(=O)c3ccc4ccccc4c3)cc12 | 66.9
39 | COc1ccc(N(C(=O)CCl)C(C(=O)NCCc2ccccc2)c2cccs2)cc1 (configuration not stated) | 7.8
40 | O=C(NC1CCCCC1)C(c1cccnc1)N(C(=O)CCl)c1cccc(Cl)c1 (configuration not stated) | 15.5
41 | Cc1ccc(C(=O)OCn2ncc(Cl)c(Cl)c2=O)cc1 | 42.3
42 | CCC(C)[C@@H](NC(=O)OC(C)(C)C)c1nnc(S(=O)(=O)Cc2cccc(C)c2)o1 (some centres not stated) | 31.9
43 | Cn1nc(-c2ccccn2)nc2c(=O)n(C)c(=O)nc1-2 | 10.1
44 | Cc1ccc(C)c(Sc2ccc(NC(=O)CCl)cc2)c1 | 22.5
45 | Cc1nc2c(=O)n(C)c(=O)nc-2n(C)n1 | 1.9
46 | COc1cc2c(cc1OC)-c1c(OC)c(OC)cc3c1C(C2)N(C)CC3 (configuration not stated) | 25.8
47 | CC1=NNC(=O)C1Cc1c(Cl)cccc1Cl (configuration not stated) | 46.2
48 | COC(=O)c1sc(-c2ccc(Cl)cc2)cc1NC(=O)/C=C/C(=O)O | 41.8
49 | Cc1ccc(-n2nnc3c(SCC(=O)NCC4CCCO4)ncnc32)cc1 (configuration not stated) | 46.4
50 | C/C(=N\NC(=O)c1ccncc1)c1cc2ccccc2oc1=O | 0.29
51 | COc1ccc(C(=O)c2c(C(F)(F)F)oc3c2C(=O)c2ccccc2C3=O)cc1OC | 9.48

Row | Structure (SMILES) | IC50 [µM]
52 | Cc1ccc(CS(=O)(=O)c2ncc(Cl)c(C(=O)Nc3nnc(C(C)C)s3)n2)cc1 | 53.5
53 | Clc1ccc(-n2nnnc2Sc2ncnc3sccc23)cc1 | 5.98
54 | Cc1ccc2c(c1)c1c3n2CCN(C(=O)CCl)C3CCC1 (configuration not stated) | 1.39
55 | O=C(CCl)N1c2ccccc2OCC1c1ccccc1 (configuration not stated) | 1.69
56 | CC(=O)n1cc(N(C(=O)CCl)c2ccccc2)c2ccccc21 | 2.14
57 | CC(C)(C)c1csc(Sc2ccc([N+](=O)[O-])cn2)n1 | 51
58 | O=C(N/N=C/c1c(O)n(C2CCCCC2)c(=S)[nH]c1=O)c1ccccc1O | > 100
59 | CC(=O)N(Cc1ccc(F)cc1)C1=C(NCCc2ccccc2)C(=O)c2ccccc2C1=O | 0.74
60 | Cc1oc2c(c1C(=O)NCc1cccnc1)C(=O)c1ccccc1C2=O | < 0.2
61 | Cc1c(/C=N/Nc2nc3ccccc3[nH]2)c2ccccc2n1C | 9.5
62 | CC(C)(C)C1CCc2sc(C(=O)NNC(=O)CCl)cc2C1 (configuration not stated) | 6.29
63 | Cc1ccc(N(NC(=O)C(O)(c2ccccc2)c2ccccc2)C(=O)CCl)cc1 | 12
64 | C(=N\Nc1nncc2ccccc12)/c1ccccn1 | 15.9
65 | O=C(OCn1ncc(Cl)c(Cl)c1=O)c1cccc(C(F)(F)F)c1 | 44.9
66 | Cc1ccccc1-n1ncc2c([N+](=O)[O-])cc([N+](=O)[O-])cc21 | 1.01
67 | Cc1cc(C)cc(Cn2ncc(Cl)c(Cl)c2=O)c1 | 11.7
68 | CCn1nc(/C=C/c2ccccc2)nc2c(=O)n(C)c(=O)nc1-2 | 6.39
69 | Cc1sc2ncnc(Sc3nnnn3-c3ccccc3)c2c1C | 40.5
70 | Fc1ccc(Oc2nc(-c3ccccc3)nnc2C(F)(F)F)cc1 | > 100
71 | Cc1[nH]n(-c2ccccc2)c(=O)c1C(c1cccc([N+](=O)[O-])c1)c1c(C)[nH]n(-c2ccccc2)c1=O | > 100
72 | CCCCCCCCCCn1c2c(c(=N)c3c1CCC3)CCC2 | 2.16
73 | CN(C1=C(NC(=O)c2ccc(Cl)cc2)C(=O)c2ccccc2C1=O)c1ccccc1 | 9.43

Test system: not listed separately
Assay: as above
Conditions: M. tuberculosis H37Rv growth inhibition; at 100 µM (top of the series)

Row | Structure (SMILES) | growth inhibition
74 | O=c1cc(-c2ccc(Br)cc2)[nH][nH]1 | -4.27% (inactive)
75 | O=C(CSc1nnc(-c2ccccc2Cl)o1)Oc1ccc(Br)cc1 | 0.13% (inactive)
76 | CC(=O)Nc1cc(OC(=O)c2ccco2)cc(OC(=O)c2ccco2)c1 | 1.93% (inactive)
77 | O=C1NC2=C(CCc3ccccc32)C(c2ccccc2)N1 (configuration not stated) | 1.42% (inactive)
78 | N#CC1=C(N)Oc2n[nH]c(-c3ccccc3)c2C1c1cccc(OC(=O)N2CCOCC2)c1 (configuration not stated) | -2.13% (inactive)
79 | CCOc1cc(C2C(C#N)=C(N)Oc3n[nH]c(-c4ccccc4)c32)ccc1O (configuration not stated) | 4.87% (inactive)
80 | C/C(=N/NC(=O)Cc1cc(=O)[nH][nH]1)c1ccc([N+](=O)[O-])cc1 | -1.21% (inactive)
81 | COc1ccc(-c2[nH]nc3c2C(c2ccoc2)C(C#N)=C(N)O3)cc1 (configuration not stated) | -0.09% (inactive)
82 | Cc1cc(-c2[nH]nc3c2C(c2ccc(Cl)cc2)C(C#N)=C(N)O3)c(C)s1 (configuration not stated) | 8.76% (inactive)
83 | O=C(Cc1cc(=O)[nH][nH]1)N/N=C/c1cccc2ccccc12 | 0.57% (inactive)
84 | COC(=O)C(C#N)C(c1cccnc1)c1c(C)[nH][nH]c1=O (configuration not stated) | -0.4% (inactive)
85 | N#CC1=C(N)Oc2n[nH]c(-c3cccs3)c2C1c1cccs1 (configuration not stated) | -0.42% (inactive)
86 | Fc1ccc(Nc2nc(Oc3ccccc3F)nc(N3CCCC3)n2)cc1 | -4.07% (inactive)
87 | O=C(CSCc1cc(=O)[nH][nH]1)Nc1ccc(F)cc1 | 0.76% (inactive)
88 | CC(/C=N/NC(=O)Cc1cc(=O)[nH][nH]1)=C\c1ccccc1 | 2.34% (inactive)
89 | CCOC(=O)C/C(C)=N/NC(=O)COc1ccccc1C | 2.99% (inactive)
90 | CCOC(=O)C1CCN(C(=O)c2c(C)oc3c2C(=O)c2ccccc2C3=O)CC1 | 27.9% (inactive)

Row | Structure (SMILES) | growth inhibition
91 | O=C(Cc1cc(=O)[nH][nH]1)N/N=C/c1cccc(Cl)c1Cl | -0.74% (inactive) and -0.13% (inactive)
92 | Cc1ccc(-c2cc(=O)[nH][nH]2)c(C)c1 | 1.66% (inactive)
93 | O=c1cc(-c2ccc(Cl)c(Cl)c2)[nH][nH]1 | 1.79% (inactive)
94 | CC(C)CCn1c(N)c(C(=O)NCc2cccs2)c2nc3ccccc3nc21 | -0.29% (inactive)
95 | CCCCc1ccc(NC(=O)CSCc2cc(=O)[nH][nH]2)cc1 | -4.95% (inactive)
96 | Cc1ccccc1-c1nc(CN(C)C(C)c2ccon2)c(C)o1 (configuration not stated) | 4.51% (inactive)
97 | C/C(=N\NC(=O)Cc1cc(=O)[nH][nH]1)c1cccc([N+](=O)[O-])c1 | 2.86% (inactive)
98 | CCCc1[nH]nc2c1C(c1ccoc1)C(C#N)=C(N)O2 (configuration not stated) | 1.3% (inactive)
99 | COc1ccc(N(C(=O)COc2cccc(C)c2)S(=O)(=O)c2ccc(C)cc2)cc1 | 16.3% (inactive)
100 | CCOc1ccc(-c2[nH]nc3c2C(c2ccc(O)cc2)C(C#N)=C(N)O3)cc1 (configuration not stated) | -1.9% (inactive)
101 | CCCCCCOC(=O)c1ccc(OC(=O)c2cccnc2)cc1 | 26.1% (inactive)
102 | N#CC1=C(N)Oc2n[nH]c(-c3cccs3)c2C1c1ccsc1 (configuration not stated) | 2.91% (inactive)
103 | Cc1nc2ccccc2c2c1C(=O)N(C)C2=O | -4.82% (inactive)
104 | CCCc1c(-c2ccc(O)cc2)nn(-c2ccc(O)cc2)c1-c1ccc(O)cc1 | 6.41% (inactive)
105 | O=C(Cc1cc(=O)[nH][nH]1)N/N=C/C(Cl)=C/c1ccccc1 | 6.66% (inactive)
106 | CSCCC1C(C#N)=C(N)Oc2n[nH]c(-c3cccs3)c21 (configuration not stated) | 11.2% (inactive)
107 | Cc1ccc(O)c(N=CC2=C(O)c3ccccc3C2=O)c1 | 9.56% (inactive)
